# Experimental data from the supplement of paper PMC10307832.
# Experiments:
# Experiment in all cases: relative viability (nuclei count vs DMSO), 5 days (fraction); higher = more cells survive
# [1] = compound: C1=CC=C(C(=C1)C2=CC=C(C=C2)C3=CSC4=C3C(=C(C(=O)N4)C#N)O)O + CC(=O)Nc1cccc(-n2c(=O)n(C3CC3)c(=O)c3c(Nc4ccc(I)cc4F)n(C)c(=O)c(C)c32)c1 [Trametinib] (partner 0.02 µM)
# Summary of the method: (§1)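 Cells from lung cancer lines were seeded into 1536-well plates and, one day later, dosed by pin tool. Treatments were either a single drug or a fixed dose of an anchor drug with five library-drug doses (not always all listed) in √10 steps. After 5 days, nuclei were stained in a one-step fixation (final 0.05% Triton X-100, 1% formaldehyde, 1 ug/ml Hoechst) and counted on 4× images, and relative viability is the treated-to-vehicle nuclei ratio, as the median of duplicate plates.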
# [2] = compound: C1=CC=C(C(=C1)C2=CC=C(C=C2)C3=CSC4=C3C(=C(C(=O)N4)C#N)O)O + COc1cc2c(Oc3ccc(NC(=O)C4(C(=O)Nc5ccc(F)cc5)CC4)cc3F)ccnc2cc1OCCCN1CCOCC1 [Foretinib] (partner 0.25 µM)
# Summary of the method: as §1
# [3] = compound: C1=CC=C(C(=C1)C2=CC=C(C=C2)C3=CSC4=C3C(=C(C(=O)N4)C#N)O)O + Cc1cc(Nc2cc(N3CCN(C)CC3)nc(Sc3ccc(NC(=O)C4CC4)cc3)n2)n[nH]1 [Tozasertib] (partner 0.1 µM)
# Summary of the method: as §1
# [4] = compound: O=C(CCCCCCNC(=O)c1cnc(N(c2ccccc2)c2ccccc2)nc1)NO [Ricolinostat] + COc1cc2c(Oc3ccc(NC(=O)C4(C(=O)Nc5ccc(F)cc5)CC4)cc3F)ccnc2cc1OCCCN1CCOCC1 [Foretinib] (partner 0.25 µM)
# Summary of the method: as §1
Cell Line,relative viability ([1]; first compound 0.08 µM),relative viability ([1]; first compound 0.253 µM),relative viability ([1]; first compound 0.8 µM),relative viability ([1]; first compound 2.53 µM),relative viability ([1]; first compound 8 µM),relative viability ([2]; first compound 0.08 µM),relative viability ([2]; first compound 0.253 µM),relative viability ([2]; first compound 0.8 µM),relative viability ([2]; first compound 2.53 µM),relative viability ([2]; first compound 8 µM),relative viability ([3]; first compound 0.08 µM),relative viability ([3]; first compound 0.253 µM),relative viability ([3]; first compound 0.8 µM),relative viability ([3]; first compound 2.53 µM),relative viability ([3]; first compound 8 µM),relative viability ([4]; first compound 0.08 µM),relative viability ([4]; first compound 0.253 µM),relative viability ([4]; first compound 0.8 µM),relative viability ([4]; first compound 2.53 µM)
RERF-LC-KJ,0.988,0.908,0.917,0.878,0.834,0.917,0.996,0.902,0.914,0.778,0.488,0.474,0.52,0.527,0.463,0.842,0.795,0.88,0.802
SK-LU-1,0.412,0.408,0.505,0.476,0.426,0.886,0.733,0.871,0.947,0.734,0.319,0.265,0.293,0.379,0.306,0.739,0.908,0.772,0.722
SK-MES-1,0.588,0.625,0.582,0.554,0.551,0.885,1.02,0.905,0.852,0.837,0.842,1.07,0.942,1.01,0.923,0.782,0.946,0.928,0.917
SW 900,–,1.06,0.947,0.762,0.646,0.914,0.519,0.923,0.634,0.62,0.618,0.491,0.645,0.539,0.491,0.733,0.883,0.886,0.989
SW 1573,0.608,0.522,0.654,0.659,0.434,0.836,0.864,0.884,0.916,0.837,0.175,0.205,0.203,0.152,0.199,0.863,1.12,0.899,0.918
UMC-11,–,0.649,0.695,0.658,0.551,0.809,0.855,1.15,1.19,0.858,0.203,0.227,0.218,0.321,0.219,1.13,1.07,0.864,0.504
